Values after ≈ are worked out from the molar mass of the structure shown.
Columns and labels:
[1] = target: T1, P2Y purinoceptor 14 (Homo sapiens) (UniProt Q15391)
T1 sequence (whole entry): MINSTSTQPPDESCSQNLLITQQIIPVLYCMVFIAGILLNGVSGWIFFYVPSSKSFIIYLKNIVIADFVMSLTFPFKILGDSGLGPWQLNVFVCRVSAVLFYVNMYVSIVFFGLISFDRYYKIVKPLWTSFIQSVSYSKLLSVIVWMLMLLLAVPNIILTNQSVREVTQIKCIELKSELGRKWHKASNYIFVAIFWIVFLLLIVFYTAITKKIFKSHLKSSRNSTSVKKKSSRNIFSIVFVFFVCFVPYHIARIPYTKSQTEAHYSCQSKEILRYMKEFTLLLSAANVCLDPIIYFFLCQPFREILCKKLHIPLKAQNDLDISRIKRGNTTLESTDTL
Description: Antagonist activity at P2Y14R (unknown origin) stably expressed in HEK293 cells assessed as inhibition of forskolin-induced cAMP production at 100 nM by cAMP-Glo assay relative to control

[2] = target: T2, P2Y purinoceptor 14 (Homo sapiens, UniProt Q15391); test: Antagonist activity at P2Y14R (unknown origin) stably expressed in HEK293 cells assessed as inhibition of forskolin-induced cAMP production by cAMP-Glo assay; assay type: functional, cell-based
T2 sequence (Q15391 whole entry): T1 sequence (whole entry)

[3] = Aqueous solubility of compound in PBS at pH 7.4 by spectrometry; assay type: physicochemical; settings: buffer
[4] = Aqueous solubility of compound in double distilled water at pH 7 by spectrometry; assay type: physicochemical; settings: buffer
[5] = Aqueous solubility of compound in SIF at pH 6.8 by spectrometry; assay type: ADME; settings: simulated gi fluid
[6] = Aqueous solubility of compound in SGF at pH 1.2 by spectrometry; assay type: ADME
[7] = target: P2Y purinoceptor 6 (Homo sapiens, UniProt Q15077); test: Inhibition of P2Y6R (unknown origin) expressed in HEK293 cells assessed as decrease in IP3 reduction
[8] = Metabolic stability in human liver microsomes measured for 90 mins; assay type: ADME, Microsome; settings: 1.5 h
[9] = target: P2Y purinoceptor 4 (Homo sapiens, UniProt P51582); test: Inhibition of P2Y4R (unknown origin) expressed in HEK293 cells assessed as decrease in IP3 production; assay type: functional, cell-based
[10] = target: P2Y purinoceptor 12 (Homo sapiens, UniProt Q9H244); test: Inhibition of P2Y12R (unknown origin) expressed in HEK293 cells assessed as restoration of cAMP reduction; assay type: functional, cell-based
[11] = HEK293, filed as antagonist, dose 100.0 nM

P2Y purinoceptor 12, sequence (Q9H244 whole entry): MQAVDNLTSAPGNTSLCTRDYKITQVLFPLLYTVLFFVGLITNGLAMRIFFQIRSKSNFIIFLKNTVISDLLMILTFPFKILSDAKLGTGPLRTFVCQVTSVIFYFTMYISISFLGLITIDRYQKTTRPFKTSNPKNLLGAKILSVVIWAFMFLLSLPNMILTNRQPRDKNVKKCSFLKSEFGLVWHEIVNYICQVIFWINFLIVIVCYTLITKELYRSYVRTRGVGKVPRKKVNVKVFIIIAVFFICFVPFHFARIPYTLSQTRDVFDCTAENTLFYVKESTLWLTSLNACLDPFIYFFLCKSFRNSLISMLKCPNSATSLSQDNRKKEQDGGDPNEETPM
P2Y purinoceptor 4, sequence (P51582 whole entry): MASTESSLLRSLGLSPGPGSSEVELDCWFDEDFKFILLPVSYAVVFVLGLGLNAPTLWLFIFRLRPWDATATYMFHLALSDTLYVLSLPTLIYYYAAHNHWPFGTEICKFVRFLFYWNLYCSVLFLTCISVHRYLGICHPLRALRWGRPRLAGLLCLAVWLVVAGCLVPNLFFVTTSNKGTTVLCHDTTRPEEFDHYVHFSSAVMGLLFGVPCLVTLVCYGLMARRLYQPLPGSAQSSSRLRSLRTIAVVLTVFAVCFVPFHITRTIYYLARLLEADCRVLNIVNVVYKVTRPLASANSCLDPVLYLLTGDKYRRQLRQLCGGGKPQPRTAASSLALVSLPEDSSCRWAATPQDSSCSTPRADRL
P2Y purinoceptor 6, sequence (Q15077 whole entry): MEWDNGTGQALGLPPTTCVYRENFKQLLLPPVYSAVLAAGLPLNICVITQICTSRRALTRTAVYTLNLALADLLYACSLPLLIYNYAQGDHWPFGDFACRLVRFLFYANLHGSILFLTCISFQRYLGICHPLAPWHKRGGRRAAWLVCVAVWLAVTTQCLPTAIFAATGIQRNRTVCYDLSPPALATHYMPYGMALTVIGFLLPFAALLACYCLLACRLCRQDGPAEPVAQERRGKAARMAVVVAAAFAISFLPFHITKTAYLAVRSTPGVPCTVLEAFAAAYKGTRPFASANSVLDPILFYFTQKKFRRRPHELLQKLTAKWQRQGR

SMILES	inhibition [1, 11] [%]	IC50 [2] [nM]	other results
Cc1ccc(C(=O)Nc2cc(C(=O)O)sc2Oc2ccncc2)cc1	43.5	–	–
Cc1ccc(Sc2sc(C(=O)O)cc2NC(=O)c2ccc(C)cc2)cc1	88.4	6.53	–
Cc1ccc(C(=O)Nc2cc(C(=O)O)cc(-c3ccoc3)c2)cc1	–	–	solubility [3]: 0.878 µg/mL (≈ 2.73 µM); solubility [4]: 0.078 µg/mL (≈ 0.243 µM); solubility [5]: 0.471 µg/mL (≈ 1.47 µM); solubility ([6]; simulated gi fluid): 0.069 µg/mL (≈ 0.215 µM)
Cc1ccc(C(=O)Nc2cc(C(=O)O)sc2Oc2ccc(C(F)(F)F)cc2)cc1	62.6	–	–
O=C(O)c1cc(-c2ccc(C3CCNCC3)cc2)c2ccc(-c3ccc(C(F)(F)F)cc3)cc2c1 [PPTN]	–	–	solubility [3]: < 0.005 µg/mL; solubility [4]: < 0.005 µg/mL; solubility [5]: < 0.005 µg/mL; solubility ([6]; SGF, read-out: solubility): < 0.005 µg/mL
Cc1ccc(C(=O)Nc2cc(C(=O)O)sc2Oc2ccc(F)nc2)cc1	83.4	17.6	solubility [3]: 3.253 µg/mL (≈ 8.74 µM); solubility [4]: 0.041 µg/mL (≈ 0.11 µM); solubility [5]: 1.202 µg/mL (≈ 3.23 µM); solubility ([6]; SGF, read-out: solubility): 0.036 µg/mL (≈ 0.0967 µM)
Cc1ccc(C(=O)Nc2cc(C(=O)O)sc2Oc2ccc(C#N)cc2)cc1	–	–	inhibition ([1]; HEK293, dose 100.0 nM): 16.2%
Cc1ccc(C(=O)Nc2cc(C(=O)O)sc2Oc2cccc(Cl)c2)cc1	–	–	inhibition ([1]; HEK293, dose 100.0 nM): 36.2%
CCCc1ccc(Oc2sc(C(=O)O)cc2NC(=O)c2ccc(C)cc2)cc1	66.3	124	–
Cc1ccc(Oc2sc(C(=O)O)cc2NC(=O)c2ccc(C(C)(C)C)cc2)cn1	–	–	inhibition ([1]; HEK293, dose 100.0 nM): 12.2%
Cc1ccc(C(=O)Nc2cc(C(=O)O)sc2Oc2cccc(C(F)(F)F)c2)cc1	52.8	–	–
Cc1ccc(C(=O)Nc2cc(C(=O)O)sc2Oc2cccc(F)c2)cc1	69.6	87.7	–
S=C=Nc1cccc(NC(=S)NCCCCNC(=S)Nc2cccc(N=C=S)c2)c1	–	–	IC50 [7]: 23.4 nM
Cc1ccc(C(=O)Nc2cc(C(=O)O)sc2Oc2ccsn2)cc1	60.3	–	–
Cc1ccc(Oc2sc(C(=O)O)cc2NC(=O)c2cnc(C)nc2)cn1	83.9	3130	–
Cc1ccc(C(=O)Nc2cc(C(=O)O)sc2Oc2ccccc2Cl)cc1	40.4	–	–
Cc1ccc(Oc2sc(C(=O)O)cc2NC(=O)c2ccccc2)cn1	81.9	13	–
Cc1ccc(Oc2sc(C(=O)O)cc2NC(=O)c2ccc(C(C)C)cc2)cn1	44.3	–	–
COc1ccccc1Oc1sc(C(=O)O)cc1NC(=O)c1ccc(C)cc1	48.1	–	–
O=C(CCCNC(=S)Nc1ccc2c(c1)C(=O)OC21c2ccc(O)cc2Oc2cc(O)ccc21)NCCCC(=O)N1CCC(c2ccc(-c3cc(C(=O)O)cc4cc(-c5ccc(C(F)(F)F)cc5)ccc34)cc2)CC1	–	1.52	–

SMILES	inhibition [1, 11] [%]	IC50 [2] [nM]	other results
Cc1ccc(C(=O)Nc2cc(C(=O)O)sc2Oc2ccc(C(C)(C)C)cc2)cc1	54.4	–	–
CCc1ccc(Oc2sc(C(=O)O)cc2NC(=O)c2ccc(C)cc2)cc1	67.4	81.3	–
Cc1ccc(C(=O)Nc2cc(C(=O)O)sc2Oc2cccnc2)cc1	62	–	–
Cc1ccc(Oc2sc(C(=O)O)cc2NC(=O)c2ccc(C#N)cc2)cn1	–	–	inhibition ([1]; HEK293, dose 100.0 nM): 33%
Cc1ccc(Nc2sc(C(=O)O)cc2NC(=O)c2ccc(C)cc2)cc1	41.7	–	–
Cc1ccc(C(=O)Nc2cc(C(=O)O)sc2Oc2ccc(C)nc2)nc1	60.1	–	–
Cc1ccc(Oc2sc(C(=O)O)cc2NC(=O)c2ccc(C(F)(F)F)cc2)cn1	–	–	inhibition ([1]; HEK293, dose 100.0 nM): 39.7%
Cc1ccc(C(=O)Nc2cc(C(=O)O)sc2Oc2ccc(S(C)(=O)=O)cc2)cc1	62.8	–	–
COc1ccc(Oc2sc(C(=O)O)cc2NC(=O)c2ccc(C)cc2)cc1	69.8	24500	–
Cc1ccc(Oc2sc(C(=O)O)cc2NC(=O)c2ccc(C)nc2)cn1	–	–	inhibition ([1]; HEK293, dose 100.0 nM): 30.3%
Cc1ccc(C(=O)Nc2cc(C(=O)O)sc2Oc2ccc(C)cn2)cc1	90.6	0.55	solubility [3]: 1.7 µg/mL (≈ 4.61 µM); solubility [4]: 0.039 µg/mL (≈ 0.106 µM); solubility [5]: 0.109 µg/mL (≈ 0.296 µM); solubility ([6]; SGF, read-out: solubility): 0.03 µg/mL (≈ 0.0814 µM)
Cc1ccc(C(=O)Nc2cc(C(=O)O)sc2Oc2ccccc2)cc1	42.3	–	–
CCCc1ccc(C(=O)Nc2cc(C(=O)O)sc2Oc2ccc(C)nc2)cc1	44.3	–	–
Cc1ccc(C(=O)Nc2cc(C(=O)O)sc2Oc2ccc(C)nc2)cc1	99.4	6.53	solubility [3]: 2.37 µg/mL (≈ 6.43 µM); solubility [4]: 0.067 µg/mL (≈ 0.182 µM); solubility [5]: 0.189 µg/mL (≈ 0.513 µM); solubility ([6]; SGF, read-out: solubility): 0.844 µg/mL (≈ 2.29 µM)
CCc1ccc(C(=O)Nc2cc(C(=O)O)sc2Oc2ccc(C)nc2)cc1	59.8	–	–
COc1cccc(Oc2sc(C(=O)O)cc2NC(=O)c2ccc(C)cc2)c1	63.2	–	–
COc1ccc(C(=O)Nc2cc(C(=O)O)sc2Oc2ccc(C)nc2)cc1	112	1.29	solubility [3]: 2.33 µg/mL (≈ 6.06 µM); solubility [4]: 0.063 µg/mL (≈ 0.164 µM); Stability [8]: Stable; solubility [5]: 0.423 µg/mL (≈ 1.1 µM); solubility ([6]; SGF, read-out: solubility): 2.26 µg/mL (≈ 5.88 µM)
Cc1ccc(Oc2sc(C(=O)O)cc2NC(=O)c2ccc(Cl)cc2)cn1	–	–	inhibition ([1]; HEK293, dose 100.0 nM): 21%
Cc1ccc(C(=O)Nc2cc(C(=O)O)sc2Oc2ccccc2F)cc1	66	104	–
Cc1ccc(C(=O)Nc2cc(C(=O)O)sc2Oc2ccc(F)cc2)cc1	74.8	60.6	–

SMILES	inhibition [1, 11] [%]	IC50 [2] [nM]	other results
Cc1ccc(Oc2sc(C(=O)O)cc2NC(=O)c2cnn(C)c2)cn1	42.8	–	–
CC(=O)Nc1ccc(Oc2sc(C(=O)O)cc2NC(=O)c2ccc(C)cc2)cc1	66	18600	–
Cc1ccc(Oc2sc(C(=O)O)cc2NC(=O)c2ccc(F)cc2)cn1	46.6	–	–
Cc1ccc(C(=O)Nc2cc(C(=O)O)nn2Cc2ccc(F)cc2)cc1	–	–	solubility [3]: 0.318 µg/mL (≈ 0.9 µM); solubility [4]: 0.088 µg/mL (≈ 0.249 µM); solubility [5]: 0.203 µg/mL (≈ 0.574 µM); solubility ([6]; simulated gi fluid): 0.085 µg/mL (≈ 0.241 µM)
Cc1ccc(C(=O)Nc2cc(C(=O)O)sc2Oc2ccc(C(C)C)cc2)cc1	54.3	–	–
Cc1ccc(C(=O)Nc2cc(C(=O)O)sc2Oc2cccc(C)c2)cc1	55.8	–	–
Cc1ccc(C(=O)Nc2cc(C(=O)O)sc2Oc2ccccc2C(F)(F)F)cc1	57.1	–	–
Cc1ccc(C(=O)Nc2cc(C(=O)O)sc2Oc2ccccn2)cc1	74.9	1690	–
Cc1ccc(C(=O)Nc2cc(C(=O)O)sc2Oc2ccc(Cl)cc2)cc1	–	–	inhibition ([1]; HEK293, dose 100.0 nM): 39.9%
Cc1ccc(C(=O)Nc2cc(C(=O)O)sc2Oc2ccccc2C)cc1	45.8	–	–
Cc1ccc(C(=O)Nc2cc(C(=O)O)sc2Oc2ccc(OC(F)(F)F)cc2)cc1	–	–	inhibition ([1]; HEK293, dose 100.0 nM): 32.7%
O=C(C1CC1)N1CCc2cc(Br)c(S(=O)(=O)Nc3ccc(C(F)(F)F)c(Cl)c3)cc21	–	–	IC50 [9]: 13000 nM
Cc1ccc(Oc2sc(C(=O)O)cc2NC(=O)c2ccc(C)cc2)cc1	97.4	4.01	–
Cc1ccc(Oc2sc(C(=O)O)cc2NC(=O)c2cnc(C)cn2)cn1	71	1060	–
Cc1ccc(C(=O)Nc2cc(C(=O)O)sc2Oc2ccc(C(=O)O)cc2)cc1	44.1	–	–
CC(=O)c1ccc(Oc2sc(C(=O)O)cc2NC(=O)c2ccc(C)cc2)cc1	–	–	inhibition ([1]; HEK293, dose 100.0 nM): 34.5%
C#Cc1ccc(C(=O)Nc2cc(C(=O)O)sc2Oc2ccc(C)nc2)cc1	116	7.51	–
CCCSc1nc(N[C@@H]2C[C@H]2c2ccc(F)c(F)c2)c2nnn([C@@H]3C[C@H](OCCO)[C@@H](O)[C@H]3O)c2n1 [TICAGRELOR]	–	–	IC50 [10]: 1280 nM
Cc1ccc(Oc2sc(C(=O)O)cc2NC(=O)c2ccc(N(C)C)cc2)cn1	40.8	–	–
